Where two headings read alike, the source gives them in different places. Starred links: 1 amine or outer side, 2 acyl side, 3 side chain; linkers in the order of their positions; H or OH if unused. Non-standard residues stand in square brackets, D forms with d. Residues, ends and D or L forms follow the SMILES beside them. dNMe2Nal = CN[C@H](Cc1ccc2ccccc2c1)C(=O)O; d2Nal = N[C@H](Cc1ccc2ccccc2c1)C(=O)O; Ethylenediamine = C(CN[*:2])N[*:1]; Orn = NCCC[C@H](N)C(=O)O; Inp = O=C(O)C1CCNCC1; GABA = NCCCC(=O)O; βAla = NCCC(=O)O
How the values were obtained:
[1] = biological target: T1, rat pituitary cells (Rattus norvegicus, UniProt O08725)
Method in brief: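 Primary rat anterior pituitary cells, cultured three days in DME low glucose/10% FBS, were washed, pre-incubated twice for 15 min, then challenged 15 min with test compounds (DMSO ≤0.1%) at 37 °C. Released GH was measured by two-site ELISA; EC50 came from 4-parameter fits, mean of three to four independent determinations.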

[2] = test system: growth hormone secretion; experiment: GHRP induced growth hormone secretion, intravenous administration (Rat IV); assay type: in vivo; settings: iv injection, serum GH 10 min after injection
Method in brief: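 Female Sprague Dawley rats (24-30 days, 50-90 g) under intraperitoneal pentobarbitone received graded intravenous tail-vein peptide doses in pH 5.0 sodium acetate/mannitol buffer 20 min post-anaesthesia. Blood by cardiac puncture 10 min after dosing; serum GH measured by rat GH ELISA in duplicate.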

[3] = Combination GHRP and IGF-1 treatment of normal rats (7 days); assay type: in vivo, rat; settings: for body weight gain (in words): 7 days, twice daily sc injections, normal adult female rats, GHRH 300, GHRPs 50, L-692,585 150 μg/dose
Protocol: The rats were weighed on the day of surgery and randomized into 12 groups of 5/group using a grouping program.
The GH secretagogues were given by sc. injection twice daily, each dose of 100 μl. […] Recombinant human IGF-1 (rhIGF-1) at 2.5 mg/ml in acetate buffer was loaded into osmotic minipumps (Alza, Palo Alto, model 2ML1, pump rate 10.16 μl/hr for 7 days, fill volume 2086 μl). Other pumps were filled with acetate buffer. […] The delivered dose of rhIGF-1 was therefore 610 μg/day.
The next day the osmotic pumps were inserted into rats. […] All rats not receiving rhIGF-1 containing pumps were implanted with pumps delivering the acetate buffer excipient. […] The treatment groups were;
The rats were sacrificed using carbon dioxide, bled from the heart and organs taken. Serum chemistries were measured by standard automated procedures.

[4] = Combination GHRP and IGF-1 treatment of obese Zucker Diabetic Fatty (ZDF) rats; assay type: in vivo, rat; settings: for body weight gain: obese ZDF male rats, rhGH 500 μg/d
Protocol: Ten lean ZDF rats served as an additional control group.
This GHRP was given by sc. injection twice daily, each dose of 100 μl therefore containing 50 μg/injection or 100 μg/day.
Recombinant human IGF-1 (rhIGF-1) at 13.8 mg/ml in acetate buffer was loaded into osmotic minipumps (Alza, Palo Alto, model 2ML4, pump rate 2.29 μl/hr for 28 days, fill volume 2064 μl). Other pumps were filled with acetate buffer. […] The delivered dose of rhIGF-1 was therefore 758 μg/day. Recombinant human growth hormone (rhGH, Lot R9092AX, Genentech Inc.) was diluted in sterile water to 2.5 g/l and a 100 μl injection given twice daily (250 μg/injection, or 500 μg/day).
The next day the osmotic pumps were inserted into rats. […] All rats not receiving rhIGF-1 containing pumps were implanted with pumps delivering the acetate buffer excipient.
On day 24 blood was withdrawn after a 4 hour fast and 1.5 U/kg of regular insulin was injected i.p. and a second blood sample taken 30 minutes later. The rats were then sacrificed using carbon dioxide, bled from the heart, and organs taken. Serum glucose was measured by standard automated procedures.
Data are presented as mean±standard error (SE) of the mean with 8 rats per group.

[5] = biological target: T1, rat pituitary cells; experiment: Rat “pit” cell challenges: combinations with GHRP-6/GHRH, desensitization, somatostatin suppression, GHRP antagonist; assay type: cell-based; settings: for GH response compared with control / GH release after sequential 15 min incubations with fresh compound (desensitization): 100 nM; for GH release in combination with GHRH: GHRP 100 nM plus GHRH 10 or 100 nM; for GH release in combination with GHRP-6: both at 100 nM; for GH release in the presence of 20 nM somatostatin: coincubation with 20 nM somatostatin; for GH release after sequential 15 min incubations with fresh compound (desensitization): three sequential 15 min incubations
Protocol: Dispersion: Adult female Sprague-Dawley (160-180 g., Charles River) rats were group-caged in a 12:12 light:dark cycle with food and water available ad libitum. Pituitaries from ten rats were removed, the posterior pituitary discarded and the anterior pituitary placed in Hanks' Balanced Salt Solution (HBSS: without calcium chloride, w/o magnesium chloride, w/o magnesium sulfate; Gibco) containing 20 mM HEPES (Gibco) and 100 U/ml penicillin streptomycin (PS: JRH Biosciences). Under sterile conditions, pituitaries were rinsed twice then minced into small fragments with a razor blade. Fragments were resuspended in 5 ml of HBSS/HEPES containing 20 mg collagenase (Serva 17449) and 200 ml of 1 mg/ml DNase (Sigma) for a 40 min. incubation in a 37° C. gyrotory water bath shaker (New Brunswick Scientific Model G76; setting 10). After the incubation, fragments were triturated to yield small clumps and single cells. The cells were centrifuged 1000× g for 5 min, resuspended, counted and plated at a final cell concentration of 100,000 cells/ml. Incubation media was DME low glucose media w/NaHCO3 (Gibco) containing 20 mM hepes, 100 U/ml PS and 10% FBS (Hyclone A-111-L). Cells were plated at 0.5 ml per well in 48 well plates (Falcon) and incubated at 37° C. in 5% C02 for three days. […] The highest concentration of DMSO in media was 0.1%. Stock solutions (1 mM) of rat GHRH, somatostatin (Sigma) and GHRP antagonist HwkWfK were made fresh in media and diluted appropriately. The media used in all challenges and washing steps was DME low glucose with 20 mM Hepes, 100 U/ml PS, 10% FBS. Media was warmed to 37° C. and gassed by placing it into the incubator prior to challenge. On day three, the media was discarded and fresh media (approximately 1 ml) added for the first of three washes. After the last wash, the plate was placed back in the incubator for a 15 min pre-incubation. Then cells were washed 2× (with warmed and gassed media) and fresh 0.5 ml media were added for the second 15 min. pre-incubation. After the second pre-incubation cells were washed 2× as above and 0.5 ml of control and test solutions were added for a final 15 min incubation. After this incubation, the media were removed for subsequent GH ELISA. GH ELISA: A two-site ELISA was used to determine rat GH concentration in the media. Briefly, goat anti-rat GH antibody (lot#19164-20) was used to coat Nunc immunoplates overnight. After blocking and washing, standard (rat GH reference preparation: Parlow) and challenge media is diluted 1:20 prior to GH assay were added for a 1 hr room temperature incubation. STATISTICS: The mean for each group was determined and analyzed by one-way analysis of variance with a post-hoc Student-Newman-Keuls. Significance is defined as P<0.05. The EC50 was calculated using a 4-parameter curve-fit program (Kaleidagraph). Three to four independent EC50s were used to derive the mean and SEM.

[6] = GHRP induced dose dependent weight gain in rats (sc minipump infusion, 14 days); assay type: in vivo, rat
Protocol: Rat GHRH (1-43) was dissolved in the same buffer at 25 g/l.
The next day these osmotic pumps were inserted into rats.
Serum chemistries were measured by standard automated procedures.

[7] = read-out: PIT Cell EC50, Table IV, formula III compounds, GH release, 15 min incubation
[8] = Day 2, GHRP 100 μg/d sc injection, rhIGF-1 758 μg/d pump
[9] = high dose (inip) b b F K-NH2 100 μg/day, GHRH 600 μg/day, 14 d infusion
[10] = read-out: EC50 of the representative GH dose response, single representative experiment, 15 min exposure
[11] = read-out: mean EC50, mean ± SE of independent EC50s
[12] = read-out: PIT Cell EC50, Table III, formula IV compounds, GH release, 15 min incubation

T1 sequence (O08725 whole entry): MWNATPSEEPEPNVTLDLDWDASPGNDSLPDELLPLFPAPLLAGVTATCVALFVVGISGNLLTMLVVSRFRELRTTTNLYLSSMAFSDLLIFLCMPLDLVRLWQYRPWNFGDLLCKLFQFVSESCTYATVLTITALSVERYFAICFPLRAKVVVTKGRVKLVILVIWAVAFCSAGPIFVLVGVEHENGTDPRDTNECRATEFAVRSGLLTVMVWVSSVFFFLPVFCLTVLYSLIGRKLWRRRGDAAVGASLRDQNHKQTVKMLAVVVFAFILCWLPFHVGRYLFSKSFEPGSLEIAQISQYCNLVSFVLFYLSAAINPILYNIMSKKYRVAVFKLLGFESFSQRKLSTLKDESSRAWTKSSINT

Compound: NC(=O)[C@H](Cc1ccccc1)NC(=O)[C@@H](Cc1ccc2ccccc2c1)NC(=O)[C@@H](Cc1ccc2ccccc2c1)NC(=O)C1CCNCC1 [(inip) b b F amide, (inip)-DβNal-DβNal-Phe-amide] (H-[Inp][d2Nal][d2Nal]F-NH2)
- EC50 [1, 7]: 0.28 nM
- RAT IV ED50 ([2]; Table IV): 1.7 µg
- body weight gain (in words) [3]: significant body weight gain
- weight gain ([3]; in 7 days, 50 μg/dose twice daily sc): 36 ± 8 g

Compound: rhGH: Recombinant human growth hormone (Lot R9092AX, Genentech Inc.)
- body weight gain [4, 8]: 13.6 ± 2.5 g
- blood glucose ([4]; rat, in vivo): 725±30 mg %
- fasting blood glucose ([4]; rat, in vivo): 504±38 mg %
- serum insulin ([4]; rat, in vivo): 48 ± 6 ng/mL

Compound: GHRH: Rat GHRH (1-43), growth hormone releasing hormone, positive control (HADAIFTSSYRRILGQLYARKLLHEIMNRQQGERNQEQRSRFN; Somatoliberin; UniProt P09916 31-73, looked up) [reference compound]
- GH response compared with control [5]: mild GH response
- epiphyseal plate width ([6]; 14 d infusion): no statistically significant increase
- pituitary and kidney weight ([6]; 14 d infusion): not affected
- liver weight (in words) ([6]; GHRH 600 μg/day, 14 d infusion): significantly increased
- heart weight compared to excipient ([6]; high dose 100 μg/day, GHRH 600 μg/day): increased
- spleen weight [6, 9]: 624 ± 23 mg
- thymus weight [6, 9]: 575 ± 39 mg
- body weight gain compared to excipient ([6]; sc minipump 14 days, (inip) b b F K-NH2 4, 20, 100 μg/d, GHRH 600 μg/d, 90 day old female rats): significant body weight and organ weight gain
- body weight gain (in words) [3]: significant body weight gain

Compound: rhIGF-1: Recombinant human insulin-like growth factor-1
- body weight gain [4, 8]: 21.5 ± 0.7 g
- body weight gain ([4]; day 24, GHRP 100 μg/d, rhIGF-1 758 μg/d): 232 ± 2 g
- blood glucose ([4]; rat, in vivo): 1774 mg %
- serum insulin ([4]; rat, in vivo): 8 ± 1 ng/mL

Compound: NCCCC[C@H](NC(=O)[C@H](Cc1ccccc1)NC(=O)[C@@H](Cc1ccc2ccccc2c1)NC(=O)[C@@H](Cc1ccc2ccccc2c1)NC(=O)C1CCNCC1)C(N)=O (stereo in doubt) [(inip) b b F K amide, (inip)-DβNal-DβNal-Phe-Lys-amide]
- blood glucose ([4]; rat, in vivo): 542±37 mg %

Compound: NC(=O)CN(CCc1ccccc1)C(=O)[C@@H](Cc1ccc2ccccc2c1)NC(=O)[C@@H](Cc1ccc2ccccc2c1)NC(=O)C1CCNCC1 [(inip) b b feg amide, (inip)-DβNal-DβNal-(N-2-phenylethyl-Gly) amide]
- fold more potent than GHRP-6 ([1]; ratio of pit cell EC50s): ~25 fold
- EC50 [1, 10]: 0.09 nM
- EC50 [1, 11]: 0.25 ± 0.19 nM
- RAT IV ED50 ([2]; Table IV): 1 µg
- GH response compared with control [5]: significantly greater than control
- GH release in combination with GHRH [5]: synergistic
- GH release in combination with GHRP-6 [5]: not synergistic
- GH release in the presence of 20 nM somatostatin [5]: totally suppressed
- GH release after sequential 15 min incubations with fresh compound (desensitization) [5]: markedly decreased

Compound: O=C(N[C@H](Cc1ccc2ccccc2c1)C(=O)N[C@@H](CO)Cc1c[nH]c2ccccc12)C1CCNCC1 [(inip) b wol, (inip)-DβNal-(D-Tryptophanol)]
- EC50 [1, 10]: 3.9 nM
- EC50 [1, 11]: 10.6 ± 6.2 nM
- RAT IV ED50 ([2]; Table V): 0.8 µg
- GH response compared with control [5]: significantly greater than control
- GH release in combination with GHRH [5]: synergistic
- GH release in combination with GHRP-6 [5]: not synergistic
- GH release in the presence of 20 nM somatostatin [5]: totally suppressed
- GH release after sequential 15 min incubations with fresh compound (desensitization) [5]: no significant release of GH

Compound: CN(C(=O)[C@@H](Cc1ccc2ccccc2c1)NC(=O)C1CCNCC1)[C@H](Cc1ccc2ccccc2c1)C(=O)NCCCCN [(inip) b nmb bam, (inip)-DβNal-(N-Me-DβNal)-[N-(4-aminobutyl)] amide]
- EC50 [1, 7]: 0.3 nM
- RAT IV ED50 ([2]; Table IV): 1.67 µg
- body weight gain (in words) [3]: significant body weight gain

Compound: NCCCC[C@H](NC(=O)[C@H](Cc1ccccc1)NC(=O)[C@@H](Cc1ccc2ccccc2c1)NC(=O)[C@@H](Cc1c[nH]c2ccccc12)NC(=O)[C@@H](N)Cc1c[nH]cn1)C(N)=O [H w b F K amide] (H-H[dW][d2Nal]FK-NH2)
- EC50 [1, 12]: 15 nM
- RAT IV ED50 ([2]; Table III): 50 µg

Compound: NCCNC(=O)[C@@H](Cc1ccc2ccccc2c1)NC(=O)[C@@H](Cc1ccc2ccccc2c1)NC(=O)C1CCNCC1 [(inip) b b tam] (H-[Inp]-[d2Nal]-[d2Nal]-Ethylenediamine)
- EC50 [1, 7]: 11 nM
- RAT IV ED50 ([2]; Table IV): 20 µg

Compound: NCCCC[C@H](NC(=O)[C@H](Cc1ccccc1)NC(=O)[C@@H](Cc1ccc2ccccc2c1)NC(=O)[C@@H](Cc1ccc2ccccc2c1)NC(=O)CCN)C(N)=O [bA b b F K amide] (H-[βAla][d2Nal][d2Nal]FK-NH2)
- EC50 [1, 12]: 4.8 nM
- RAT IV ED50 ([2]; Table III): 6.7 µg

Compound: CN(C(=O)CCCN)[C@H](Cc1ccc2ccccc2c1)C(=O)N[C@H](Cc1ccc2ccccc2c1)C(=O)N[C@@H](Cc1ccccc1)C(=O)N[C@@H](CCCCN)C(N)=O [(Ab) nmb b F K amide] (H-[GABA][dNMe2Nal][d2Nal]FK-NH2)
- EC50 [1, 12]: 0.5 nM
- RAT IV ED50 ([2]; Table III): 1 µg

Compound: NCCC[C@H](NC(=O)[C@@H](Cc1ccc2ccccc2c1)NC(=O)[C@@H](Cc1ccc2ccccc2c1)NC(=O)C1CCNCC1)C(N)=O [(inip) b b O amide] (H-[Inp][d2Nal][d2Nal][Orn]-NH2)
- EC50 [1, 7]: 5.9 nM
- RAT IV ED50 ([2]; Table IV): 1 µg

Compound: CN(C(=O)[C@@H](Cc1ccc2ccccc2c1)NC(=O)C1CCNCC1)[C@H](Cc1ccc2ccccc2c1)C(=O)NC1CCNCC1 [(inip) b nmb api, (inip)-DβNal-(N-Me-DβNal)-N-(4-piperidinyl) amide]
- EC50 [1, 7]: 0.5 nM
- RAT IV ED50 ([2]; Table IV): 2 µg

Compound: NC(=O)[C@@H]1CCCN1C(=O)[C@@H](Cc1ccc2ccccc2c1)NC(=O)[C@@H](Cc1ccc2ccccc2c1)NC(=O)C1CCNCC1 [(inip) b b P amide] (H-[Inp][d2Nal][d2Nal]P-NH2)
- EC50 [1, 7]: 9 nM
- RAT IV ED50 ([2]; Table IV): 5 µg

Reference: US7094869B2, “Low molecular weight peptidomimetic growth hormone secretagogues” (Genentech, Inc., priority 1994, dated 2006)
